pIC50: −log10 of the molar value.

The test system of experiment [1] is spheroids consisting only of human hepatocytes (PXB cells). Put plainly: ATP assay (CellTiter Glo 3D) viability after exposure to hepatotoxicity-inducing compounds, Test Example 6 Condition 2. The following applies: calculated from cell viability (ATP), hepatocyte spheroids, exposure 168 hours, no bile acids, read-out: IC50 Condition 2 (spheroid). Type of experiment: cell-based.

In experiment [2] the test system is three-dimensional hepatic tissue consisting only of human hepatocytes (PXB cells). Briefly: ATP assay (CellTiter Glo 3D) viability after exposure to hepatotoxicity-inducing compounds, Test Example 6 Condition 1. Format: cell-based. The following applies: Hepatocyte, calculated from cell viability (ATP), exposure 168 hours from day 8 of culture, no bile acids, read-out: IC50 Condition 1 (present tissue). The procedure: The resulting mixture was centrifuged at room temperature at 400×g for 2 minutes, the supernatant was removed, and the cells were resuspended in an HCM (product number “CC-3198”, manufactured by Lonza) containing 10 U/mL thrombin (product number “R4648”, manufactured by Sigma-Aldrich) and 1 v/v % endothelial cell growth supplement (ECGS) (product number “1052”, manufactured by Sciencell) to a cell density of 1.95×10^4 cells/2 μL to obtain a cell suspension.
2 μL of an HCM containing 5 mg/mL fibrinogen and 1 v/v % ECGS was added to a 48-well microplate (product number “3830-048”, manufactured by AGC Techno Glass) to form a droplet. The cell suspension was added to the interior of each droplet, and the 48-well microplate was then left to stand in an incubator for 40 minutes to form a fibrin gel in which the human hepatocytes were embedded. 0.5 mL of HCM containing 1 v/v % ECGS was added to each well in which the fibrin gel had been formed, and the cells were cultured under the conditions of 37° C. and 5% CO2. After the start of the culture, the medium was changed every two days.

For `CC(=O)Nc1ccc(O)cc1` [Acetaminophen], the negative-log IC50 (pIC50) in experiment [1] was 2.33; in experiment [2], 2.26.
On to `CCc1oc2ccccc2c1C(=O)c1cc(Br)c(O)c(Br)c1` [Benzbromarone], for which the figures for the negative-log IC50 (pIC50) in experiment [1] and in experiment [2] were 3.59 and 3.60, respectively.
Take `NC(=O)N1c2ccccc2C=Cc2ccccc21` [Carbamazepine]: the pIC50 in experiment [1] was 3.01; in experiment [2], 3.07.
Turning to `CN(C)CCCN1c2ccccc2Sc2ccc(Cl)cc21` [Chlorpromazine], the pIC50 in experiment [1] is 4.60; in experiment [2], 4.58.
On the same counts, the results for `O=C(O)Cc1ccccc1Nc1c(Cl)cccc1Cl` [Diclofenac] are 3.53 and 3.47.
For `CC(C)C(=O)Nc1ccc([N+](=O)[O-])c(C(F)(F)F)c1` [Flutamide], the pIC50 is 3.75 in experiment [1] and 4.19 in experiment [2].
On to `CC(=O)N1CCN(c2ccc(OCC3COC(Cn4ccnc4)(c4ccc(Cl)cc4Cl)O3)cc2)CC1` (centres unmarked) [Ketoconazole], for which the values for the pIC50 in experiment [1] and in experiment [2] were 4.10 and 4.09, respectively.
Turning to `CS(=O)(=O)CCNCc1ccc(-c2ccc3ncnc(Nc4ccc(OCc5cccc(F)c5)c(Cl)c4)c3c2)o1` [Lapatinib], the pIC50 was 4.56 in experiment [1] and 5.08 in experiment [2].
On the same counts, the results for `CCc1nn(CCCN2CCN(c3cccc(Cl)c3)CC2)c(=O)n1CCOc1ccccc1` [Nefazodone] are 4.33 and 4.40.
As to `CS(=O)(=O)Nc1ccc([N+](=O)[O-])cc1Oc1ccccc1` [Nimesulide], the results for the pIC50 in experiment [1] and in experiment [2] were 3.17 and 3.49, respectively.
Regarding `C1CCC(C(CC2CCCCN2)C2CCCCC2)CC1` (centres unmarked) [Perhexiline], the negative-log IC50 (pIC50) is 5.25 in experiment [1] and 5.44 in experiment [2].
On the same counts, the results for `Cc1ccc(C(=O)c2cc(O)c(O)c([N+](=O)[O-])c2)cc1` [Tolcapone] are 4.03 and 3.88.
Regarding `Cc1c(C)c2c(c(C)c1O)CCC(C)(COc1ccc(CC3SC(=O)NC3=O)cc1)O2` (centres unmarked) [Troglitazone], the pIC50 was 3.70 in experiment [1] and 4.03 in experiment [2].

The pIC50 is −log10 of the IC50, conventionally taken in molar units.

The values above are taken from patent US20250368962A1, “THREE-DIMENSIONAL HEPATIC TISSUE AND METHOD OF MANUFACTURING THE SAME” (TOPPAN HOLDINGS INC., priority 2023, published 2025).
